“Also recorded” adds a separate entry of the source.
Assays:
[1] = test system: Neonatal Rat Ventricular Myocytes (NRVMs); experiment: Serum (FBS)-induced hypertrophy of Neonatal Rat Ventricular Myocytes in vitro; type: cell-based; details: for viability: NRVMs (not shown); for order of potency for inhibitors / growth response to Fetal Bovine Serum / serum-stimulated myocyte growth (hypertrophy): NRVMs; for order of potency for inhibitors: FBS-induced growth; for growth response to Fetal Bovine Serum / serum-stimulated myocyte growth (hypertrophy): pre-treatment with a range of doses
Experimental: The cells were also treated with DMSO (light gray bars) or a vehicle (dark gray bars) as a negative control. The order of potency for inhibitors was DMSO<7MI<TSA<8MI. Viability was unchanged (not shown).
Next, the ability of 7MI and 8MI to inhibit hypertrophy in vitro was tested (FIG. 2A). […] However, fetal calf serum, which contained a rich variety of growth factors, was chosen as the most robust and multifactorial stimulus for cardiomyocyte growth available, reasoning that a similarly robust and powerful inhibitor would be required to block this hypertrophy.

[2] = Metabolic stability in human liver microsomes fortified with NADPH (Example 11); type: in vitro ADME; design: CLint scaled: dose or concentration left out as unconfirmed; details: for K (rate constant): 0.5 mg/mL human liver microsomes, 1 mM NADPH, pH 7.4, 37° C.; for Clhp (hepatic clearance) / CLint scaled / metabolic stability / clearance in the liver, in words / intrinsic clearance (Clint) rate, fold higher than 7MI / intrinsic clearance (Clint) rate, fold higher than 8MI: human liver microsomes; for CLint scaled: pH 7.4, from mono-exponential decay model, read-out: Clint (intrinsic clearance); for metabolic stability / clearance in the liver, in words: comparison of 7MI, 8MI, BML-210, TSA; for intrinsic clearance (Clint) rate, fold higher than 7MI: ratio to 7MI; for intrinsic clearance (Clint) rate, fold higher than 8MI: ratio to 8MI
Description: Drug clearance is a measure of the ability of the body or an organ to eliminate a drug from the blood circulation. Systemic clearance is a measure of the ability of the entire body to eliminate the drug. Organ clearance is a measure of the ability of a particular organ (hepatic or renal) to eliminate the drug. For hepatic clearance, the liver is the major organ for drug metabolism and the key organ for drug clearance. Human liver microsomes (HLM) fortified with NADPH is a standard way to measure in vitro metabolism and predict in vivo clearance. CLint (intrinsic clearance) is the link between in vitro and in vivo studies, which can be estimated based on the mono-exponential decay model: Ct=C X e^−kt.
Human liver microsomes fortified with NADPH is a standard approach to evaluate metabolic stability mediated by CYP (cytochrome P450) enzymes in vitro. The reaction mixture (0.4 mL) contained 0.5 mg/mL human liver microsomes, 100 mM phosphate buffer (pH 7.4) and […] of test compounds. The mixture was first warmed up for 5 min in a 37° C. shaking water bath and then NADPH at a final concentration of 1 mM was added to initiate the reaction. Aliquots […] were taken at specified time points and mixed with ice-cold methanol (containing internal standard) to stop the reaction. The mixture was vortexed briefly and centrifuged for protein precipitation. An aliquot of […] supernatant was subject to LC-MS/MS analysis. The percentage of compound disappearance was used to calculate the rate of metabolism.

HDACs = details: background statement; cited from earlier work
[3] = mice, previously reported, cited from earlier work

| SMILES | viability [1] | order of potency for inhibitors [1] | growth response to Fetal Bovine Serum / serum-stimulated myocyte growth (hypertrophy) [1] | K (rate constant) [2] [min⁻¹] | Clhp (hepatic clearance) [2] [mL/min/kg] | CLint scaled [2] [mL/min/kg] | metabolic stability / clearance in the liver, in words [2] | intrinsic clearance (Clint) rate, fold higher than 7MI [2] [fold] | intrinsic clearance (Clint) rate, fold higher than 8MI [2] [fold] | HDAC inhibition range (HDACs) | survival at the tolerated daily dosage ([3]; 1 mg/kg) | tolerated daily dosage [3] [mg/kg] |
| --- | --- | --- | --- | --- | --- | --- | --- | --- | --- | --- | --- | --- |
| Nc1ccccc1NC(=O)CCCCCC(=O)Nc1ccc(Br)cc1 [7MI] | unchanged | DMSO<7MI<TSA<8MI | sufficient to block myocyte hypertrophy; also recorded: depressed growth response | 0.0027 | 2.45 | 2.78 |  |  |  |  |  |  |
| Nc1ccccc1NC(=O)CCCCCCC(=O)Nc1ccccc1 [BML-210, reference compound] |  |  |  | 0.0116 | 7.57 | 11.9 | high clearance compound | 4.3 | 2.5 |  |  |  |
| CC(/C=C/C(=O)NO)=C\[C@@H](C)C(=O)c1ccc(N(C)C)cc1 [TSA, Trichostatin A, reference compound] | unchanged | DMSO<7MI<TSA<8MI | depressed growth response | 0.0088 | 6.30 | 9.05 | metabolically cleared much faster than 7MI or 8MI | 3.2 | 1.9 | low nanomolar range | not all of the mice survived | 1 |
| O=C(CCCCCN1C(=O)c2cccc3cccc(c23)C1=O)NO [Scriptaid] |  |  |  |  |  |  |  |  |  | low nanomolar range |  |  |

From patent US20180028477A1, “TREATMENT OF CARDIAC REMODELING AND OTHER HEART CONDITIONS” (C & C BIOPHARMA, LLC, priority 2013, published 2018)
